Assay [1] concerns the target histamine receptor H1 (Homo sapiens, UniProt P35367). Description: Histamine H1 radioligand binding ([3H]Pyrilamine). Particulars: for inhibition at 1 µM: read-out: Histamine Binding (1 μM) H1, percent inhibition of specific binding, 1 μM. The method, boiled down: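 Values are percent inhibition of specific [3H]pyrilamine (1.2 nM) binding with compounds at ≤1 μM (1% DMSO vehicle); 180 min incubation at 25 °C, pH 7.4 Tris buffer, on CHO-expressed human H1 receptor; 1 μM pyrilamine defined nonspecific binding, bound ligand counted after filtration.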

Assay [2] addresses T1, human recombinant serotonin (5-Hydroxytryptamine) 5-HT2A receptor (Homo sapiens, UniProt P28223).
T1 construct: expressed in transfected cells; host or cells: Chinese hamster ovary (CHO-K1) cells
Nature of the assay: Serotonin 5-HT2A radioligand binding ([3H]Ketanserin). Particulars: for inhibition at 0.1 µM: read-out: Inhibition of ligand binding, Serotonin 5-HT2A (percent inhibition of specific binding), compound at 0.1 μM; for inhibition at 1 µM: read-out: Inhibition of ligand binding, Serotonin 5-HT2A (percent inhibition of specific binding), compound at 1 μM. How it is done:
Compounds of the invention were incubated with 0.5 nM [^3H]Ketanserin for 60 min. at 25° C. Non-specific binding was estimated in the presence of 1 μM Mianserin. Receptor proteins were filtered and washed, the filters were then counted to determine [^3H]Ketanserin specifically bound.

For assay [3], the target named is T2, human recombinant adrenergic α1D receptor (Homo sapiens, UniProt P25100).
T2 construct: expressed in transfected cells; host or cells: human embryonic kidney (HEK-293) cells
T2 sequence (P25100 1-572): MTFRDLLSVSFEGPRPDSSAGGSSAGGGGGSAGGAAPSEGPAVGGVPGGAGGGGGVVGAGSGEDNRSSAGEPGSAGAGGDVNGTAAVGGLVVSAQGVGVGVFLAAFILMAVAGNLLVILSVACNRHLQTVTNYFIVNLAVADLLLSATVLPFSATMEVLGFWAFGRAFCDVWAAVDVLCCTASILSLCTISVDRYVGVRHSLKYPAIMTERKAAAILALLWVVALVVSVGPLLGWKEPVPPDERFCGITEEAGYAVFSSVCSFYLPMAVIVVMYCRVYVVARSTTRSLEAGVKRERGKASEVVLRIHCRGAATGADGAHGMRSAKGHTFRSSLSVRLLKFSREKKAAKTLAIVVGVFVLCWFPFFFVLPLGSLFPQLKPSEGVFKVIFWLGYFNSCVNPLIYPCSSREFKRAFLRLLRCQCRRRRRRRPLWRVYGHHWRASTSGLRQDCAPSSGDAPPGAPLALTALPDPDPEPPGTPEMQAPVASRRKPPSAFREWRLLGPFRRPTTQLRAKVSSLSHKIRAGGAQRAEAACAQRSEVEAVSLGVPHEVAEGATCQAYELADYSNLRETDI
Nature of the assay: Adrenergic α1D radioligand binding ([3H]Prozosin). Particulars: compound at 1 μM. The method, then:
Compounds of invention were incubated with 0.6 nM [^3H]Prozosin for 60 min. at 25° C. Non-specific binding was estimated in the presence of 10 μM phentolamine. Receptor proteins were filtered and washed, the filters were then counted to determine [^3H]Prozosin specifically bound. Compounds were screened at 1 μM or lower, using 1% DMSO as vehicle. Biochemical assay results are presented as the percent inhibition of specific binding in Table 9.

Assay [4] has as its target T3, human recombinant serotonin (5-Hydroxytryptamine) 5-HT2C receptor (Homo sapiens, UniProt P28335).
T3 construct: expressed in transfected cells; host or cells: Chinese hamster ovary (CHO-K1) cells
T3 sequence (P28335 33-458): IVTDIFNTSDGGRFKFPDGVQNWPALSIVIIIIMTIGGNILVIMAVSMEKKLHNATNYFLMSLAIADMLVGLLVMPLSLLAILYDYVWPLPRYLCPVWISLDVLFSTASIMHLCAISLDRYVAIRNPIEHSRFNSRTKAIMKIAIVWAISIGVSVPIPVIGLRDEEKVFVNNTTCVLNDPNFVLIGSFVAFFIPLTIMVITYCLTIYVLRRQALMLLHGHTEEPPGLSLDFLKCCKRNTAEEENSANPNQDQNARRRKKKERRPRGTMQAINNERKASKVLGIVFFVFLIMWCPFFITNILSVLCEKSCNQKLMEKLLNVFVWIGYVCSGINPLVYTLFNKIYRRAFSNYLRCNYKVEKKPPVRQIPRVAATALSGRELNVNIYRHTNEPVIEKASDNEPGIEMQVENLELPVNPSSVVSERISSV
Description: Serotonin 5-HT2C radioligand binding ([3H]Mesulergine). The settings on record: for inhibition at 0.1 µM: compound at 0.1 μM; for inhibition at 0.1 µM / inhibition at 1 µM: read-out: Inhibition of ligand binding, Serotonin 5-HT2C (percent inhibition of specific binding). An outline of the steps:
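Compounds tested at 1 μM or lower (1% DMSO vehicle) for displacement of 1 nM [3H]Mesulergine over 60 min at 25° C. Specific binding determined by filtration counting, with 1 μM Mianserin defining non-specific binding; values are percent inhibition.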

Assay [5] concerns the target human dopamine D2L receptor (Homo sapiens, UniProt P14416). Nature of the assay: Dopamine D2L radioligand binding ([3H]Spiperone). The settings on record: compound at 1 μM; for Inhibition of ligand binding, Dopamine D2L: 1 µM. From the text: Non-specific binding was estimated in the presence of […] Haloperidol. Receptor proteins were filtered and washed, the filters were then counted to determine [^3H]Spiperone specifically bound. […] Biochemical assay results are presented as the percent inhibition of specific binding in Table 9.

The mark [6] stands for this setting: percent inhibition of specific binding, read-out: Inhibition of ligand binding, Adrenergic α1D.
Setting [7] is: percent inhibition of specific binding.
Where [8] appears, read: percent inhibition of specific binding, read-out: Inhibition of ligand binding, Dopamine D2L.
Where [9] appears, read: read-out: Inhibition of ligand binding, Adrenergic α1D (percent inhibition of specific binding).
The mark [10] stands for this setting: […] [3H]Spiperone, read-out: Inhibition of ligand binding, Dopamine D2L (percent inhibition of specific binding).

Read-outs that look alike come from different tables or passages of the source.

Chain of histamine receptor H1 (P35367 whole entry): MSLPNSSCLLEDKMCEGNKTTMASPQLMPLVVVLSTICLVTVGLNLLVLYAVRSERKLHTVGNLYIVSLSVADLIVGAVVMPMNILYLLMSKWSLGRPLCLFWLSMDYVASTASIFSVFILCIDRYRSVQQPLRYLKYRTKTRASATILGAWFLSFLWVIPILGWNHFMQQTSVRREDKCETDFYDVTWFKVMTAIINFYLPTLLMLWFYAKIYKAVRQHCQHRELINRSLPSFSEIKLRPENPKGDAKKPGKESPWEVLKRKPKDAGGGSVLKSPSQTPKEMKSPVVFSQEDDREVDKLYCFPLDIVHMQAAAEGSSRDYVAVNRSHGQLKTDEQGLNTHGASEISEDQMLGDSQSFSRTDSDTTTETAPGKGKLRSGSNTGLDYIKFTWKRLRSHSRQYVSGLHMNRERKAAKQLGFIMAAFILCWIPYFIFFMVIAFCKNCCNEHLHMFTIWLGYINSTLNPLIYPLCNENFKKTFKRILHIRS
T1 sequence (P28223 whole entry): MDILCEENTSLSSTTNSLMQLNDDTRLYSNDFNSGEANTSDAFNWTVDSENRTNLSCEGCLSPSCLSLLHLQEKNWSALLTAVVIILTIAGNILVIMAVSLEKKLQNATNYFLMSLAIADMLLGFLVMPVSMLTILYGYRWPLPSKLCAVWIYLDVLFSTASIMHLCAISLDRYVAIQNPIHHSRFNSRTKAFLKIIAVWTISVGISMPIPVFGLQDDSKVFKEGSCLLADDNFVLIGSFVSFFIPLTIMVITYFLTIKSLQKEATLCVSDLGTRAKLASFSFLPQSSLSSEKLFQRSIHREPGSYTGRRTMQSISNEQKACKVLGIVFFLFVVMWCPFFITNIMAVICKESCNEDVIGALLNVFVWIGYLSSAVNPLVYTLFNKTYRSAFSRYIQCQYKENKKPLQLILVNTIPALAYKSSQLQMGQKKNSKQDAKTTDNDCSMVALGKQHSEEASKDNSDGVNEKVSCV
Chain of human dopamine D2L receptor (P14416 whole entry): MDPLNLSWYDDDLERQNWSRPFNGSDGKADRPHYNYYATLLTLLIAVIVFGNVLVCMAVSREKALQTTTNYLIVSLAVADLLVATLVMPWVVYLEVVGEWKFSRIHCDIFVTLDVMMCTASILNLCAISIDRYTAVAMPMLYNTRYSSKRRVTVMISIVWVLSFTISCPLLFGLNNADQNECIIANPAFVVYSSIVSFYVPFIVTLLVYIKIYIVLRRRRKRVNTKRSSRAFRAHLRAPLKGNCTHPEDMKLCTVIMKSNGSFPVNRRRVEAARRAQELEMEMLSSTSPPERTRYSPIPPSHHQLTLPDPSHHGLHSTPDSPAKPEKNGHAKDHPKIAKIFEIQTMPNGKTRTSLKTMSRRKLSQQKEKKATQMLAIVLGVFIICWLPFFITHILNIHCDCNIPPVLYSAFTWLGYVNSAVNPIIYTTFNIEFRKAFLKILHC

Take `CCC(O)(Cn1c2c(c3cc(Cl)ccc31)CN(C)CC2)c1ccc(F)cc1` (stereo not drawn) [Compound 78, 1-(8-chloro-1,2,3,4-tetrahydro-2-methylpyrido[4,3-b]indol-5-yl)-2-(4-fluorophenyl)butan-2-ol]: in assay [1], the “Histamine Binding (1 μM) H1, percent inhibition of specific binding” value worked out at 69%. Also, the inhibition at 1 µM in assay [1] stood at 52%; in assay [2] it was 97%; in assay [3] (setting [6]) it was 49%; in assay [4] (compound at 1 μM) it was 103%; in assay [5] (setting [8]) it was 27%. Moreover, the results for the inhibition at 0.1 µM in assay [2] and in assay [4] were 76% and 69%, respectively. In addition, the “Inhibition of ligand binding, Dopamine D2L” value in assay [5] (setting [7]) is on record as 33%.
With `Cc1ccc(/C=C/Cn2c3c(c4cc(Cl)ccc42)CN(C)CC3)cn1` [Compound 125, 8-chloro-2,3,4,5-tetrahydro-2-methyl-5-((E)-3-(6-methylpyridin-3-yl)allyl)-1H-pyrido[4,3-b]indole], the inhibition at 1 µM stood at 96% in assay [1]; 97% in assay [2]; 51% in assay [3] (setting [6]); 77% in assay [4] (compound at 1 μM); 20% in assay [5] (setting [8]).
As for `CN1CCc2c(c3cc(Cl)ccc3n2C#Cc2ccc(Cl)cc2)C1` [Compound No. 480, 8-chloro-5-((4-chlorophenyl)ethynyl)-2-methyl-2,3,4,5-tetrahydro-1H-pyrido[4,3-b]indole], the inhibition at 1 µM in assay [1] amounted to 40%; in assay [2], 98%; in assay [3] (setting [9]) it was 68%; in assay [4] (compound at 1 μM) it was 102%; in assay [5] (setting [10]), 18%.
With `C/C(=C\n1c2c(c3cc(Cl)ccc31)CN(C)CC2)c1ccc(C)nc1` [Compound 89, (E)-8-chloro-2,3,4,5-tetrahydro-2-methyl-5-(2-(6-methylpyridin-3-yl)prop-1-enyl)-1H-pyrido[4,3-b]indole], the inhibition at 1 µM in assay [1] amounted to 43%; in assay [2], 101%; in assay [3] (setting [6]), 87%; in assay [4] (compound at 1 μM), 98%; in assay [5] (setting [8]), 68%.
Regarding `CCC/C=C(/Cn1c2c(c3cc(Cl)ccc31)CN(C)CC2)c1ccc(F)cc1` [Compound No. 351, (E)-8-chloro-5-(2-(4-fluorophenyl)hex-2-enyl)-2-methyl-2,3,4,5-tetrahydro-1H-pyrido[4,3-b]indole], in assay [1], the “Histamine Binding (1 μM) H1, percent inhibition of specific binding” value turned out to be 80%. Further, the inhibition at 1 µM in assay [1] is 78%; in assay [2], 100%; in assay [3] (setting [9]) it was 45%; in assay [4] (compound at 1 μM), 101%; in assay [5] (setting [10]), 70%. For the same compound, the “Inhibition of ligand binding, Dopamine D2L (percent inhibition of specific binding)” value in assay [5] ([…] [3H]Spiperone) is reported as 80%.
With `Cc1ccc2c(c1)c1c(n2CC(C)(O)c2ccncc2)CCN(C)C1` (stereo not drawn) [Compound 62, 1-(1,2,3,4-tetrahydro-2,8-dimethylpyrido[4,3-b]indol-5-yl)-2-(pyridin-4-yl)propan-2-ol], the inhibition at 1 µM in assay [1] was 38%; in assay [2], 88%; in assay [3] (setting [6]), 82%; in assay [4] (compound at 1 μM), 89%; in assay [5] (setting [8]), 7%.
In the same order, the values of `C/C(=C\n1c2c(c3cc(Cl)ccc31)CN(C)CC2)c1ccccc1` [compound 106, (E)-8-chloro-2,3,4,5-tetrahydro-2-methyl-5-(2-phenylprop-1-enyl)-1H-pyrido[4,3-b]indole] are 84%, 98%, 92%, 98% and 90%.
On to `C/C(=C\n1c2c(c3cc(Cl)ccc31)CN(C)CC2)c1ccc(Cl)cc1Cl` [Compound 210, (E)-8-chloro-5-(2-(2,4-dichlorophenyl)prop-1-enyl)-2-methyl-2,3,4,5-tetrahydro-1H-pyrido[4,3-b]indole], for which, in assay [1], the “Histamine Binding (1 μM) H1, percent inhibition of specific binding” value came out at 53%. Moreover, the “Inhibition of ligand binding, Serotonin 5-HT2A (percent inhibition of specific binding)” value in assay [2] (compound at 1 μM, 1 µM) came to 98%. For the same compound, the “Inhibition of ligand binding, Adrenergic α1D” value in assay [3] (percent inhibition of specific binding, 1 µM) was determined as 17%. Besides, in assay [4] (compound at 1 μM, 1 µM), the “Inhibition of ligand binding, Serotonin 5-HT2C (percent inhibition of specific binding)” value was found to be 99%. Moreover, in assay [5] (setting [7]), the “Inhibition of ligand binding, Dopamine D2L” value is given as 52%.
`C=C(Cn1c2c(c3cc(Cl)ccc31)CN(C)CC2)c1ccc(OC)c(F)c1` [Compound 140, 8-chloro-5-(2-(3-fluoro-4-methoxyphenyl)allyl)-2,3,4,5-tetrahydro-2-methyl-1H-pyrido[4,3-b]indole]: the inhibition at 1 µM in assay [1] turned out to be 98%; in assay [2] it was 98%; in assay [3] (setting [6]), 84%; in assay [4] (compound at 1 μM), 98%; in assay [5] (setting [8]) it was 57%.
For the compound `COC(=O)c1ccc2c(c1)c1c(n2C#Cc2ccc(F)cc2)CCN(C)C1` [Compound No. 479, methyl 5-((4-fluorophenyl)ethynyl)-2-methyl-2,3,4,5-tetrahydro-1H-pyrido[4,3-b]indole-8-carboxylate], the inhibition at 1 µM came to 11% in assay [1]; 78% in assay [2]; 55% in assay [3] (setting [9]); 69% in assay [4] (compound at 1 μM); 72% in assay [5] (setting [10]).
As for `C/C(=C\n1c2c(c3cc(C)ccc31)CN(C)CC2)c1ccc(F)cc1` [Compound 87, (E)-5-(2-(4-fluorophenyl)prop-1-enyl)-2,3,4,5-tetrahydro-2,8-dimethyl-1H-pyrido[4,3-b]indole], the “Histamine Binding (1 μM) H1, percent inhibition of specific binding” value in assay [1] amounted to 81%. For the same compound, the inhibition at 1 µM in assay [1] was determined as 65%; in assay [2], 99%; in assay [3] (setting [6]), 99%; in assay [4] (compound at 1 μM), 100%; in assay [5] (setting [8]), 97%. In addition, the inhibition at 0.1 µM in assay [2] stood at 100%; in assay [4], 101%.
On to `CCC(O)(Cn1c2c(c3cc(C)ccc31)CN(C)CC2)c1ccc(F)cc1` (stereo not drawn) [Compound 175, 1-(2,8-dimethyl-3,4-dihydro-1H-pyrido[4,3-b]indol-5(2H)-yl)-2-(4-fluorophenyl)butan-2-ol], for which the inhibition at 1 µM in assay [1] was found to be 71%; in assay [2] it was 102%; in assay [3] (setting [6]), 75%; in assay [4] (compound at 1 μM), 95%; in assay [5] (setting [8]) it was 24%.
